Measurements from the NIST ThermoML archive (doi:10.1016/j.jct.2012.11.004).
Numbers after ± are expanded uncertainties.

Assay: mn = molality of the nth substance listed, in mol/kg
Settings: 101 kPa, Liquid; for mass density: Vibrating tube method; for speed of sound: Pulse-echo method

O=S(=O)([O-])C(F)(F)F.O=S(=O)([O-])C(F)(F)F.O=S(=O)([O-])C(F)(F)F.[La+3] [lanthanum(III) trifluoromethanesulfonate] + CN(C)C=O
Settings	mass density, 283.15 K [kg/m3]	mass density, 293.15 K [kg/m3]	mass density, 298.15 K [kg/m3]	mass density, 303.15 K [kg/m3]	mass density, 313.15 K [kg/m3]	mass density, 323.15 K [kg/m3]	mass density, 333.15 K [kg/m3]	speed of sound, 298.15 K [m/s]
m1 = 0.02162	966.85 ± 0.85	957.33 ± 0.85	952.56 ± 0.85	947.79 ± 0.85	938.21 ± 0.85	928.58 ± 0.85	918.9 ± 0.85	1456 ± 1.3
m1 = 0.02944	970.04 ± 0.85	960.51 ± 0.85	955.75 ± 0.85	950.97 ± 0.85	941.39 ± 0.85	931.77 ± 0.85	922.1 ± 0.85	1455.5 ± 1.3
m1 = 0.03946	974.16 ± 0.86	964.64 ± 0.86	959.87 ± 0.86	955.09 ± 0.86	945.5 ± 0.86	935.87 ± 0.86	926.19 ± 0.86	1455 ± 1.3
m1 = 0.04997	978.49 ± 0.86	968.96 ± 0.86	964.2 ± 0.86	959.42 ± 0.86	949.83 ± 0.86	940.2 ± 0.86	930.52 ± 0.86	1454.3 ± 1.3
m1 = 0.06066	–	–	–	–	–	–	–	1453.6 ± 1.3
m1 = 0.0607	982.91 ± 0.87	973.38 ± 0.87	968.61 ± 0.87	963.83 ± 0.87	954.24 ± 0.87	944.62 ± 0.87	934.95 ± 0.87	–
m1 = 0.07649	989.57 ± 0.89	980.03 ± 0.88	975.24 ± 0.88	970.46 ± 0.88	960.87 ± 0.88	951.24 ± 0.88	941.56 ± 0.88	1452.5 ± 1.3
m1 = 0.09777	998.57 ± 0.9	989.02 ± 0.9	984.24 ± 0.9	979.46 ± 0.9	969.86 ± 0.89	960.23 ± 0.89	950.54 ± 0.89	1450.8 ± 1.3
m1 = 0.1172	1006.98 ± 0.92	997.41 ± 0.91	992.63 ± 0.91	987.84 ± 0.91	978.22 ± 0.91	968.57 ± 0.91	958.88 ± 0.91	1449.4 ± 1.3
m1 = 0.136	1015.16 ± 0.93	1005.59 ± 0.93	1000.8 ± 0.93	996 ± 0.93	986.37 ± 0.93	976.72 ± 0.93	967.03 ± 0.92	1448 ± 1.4
m1 = 0.1591	1025.46 ± 0.95	1015.87 ± 0.95	1011.07 ± 0.95	1006.26 ± 0.94	996.63 ± 0.94	986.96 ± 0.94	977.26 ± 0.94	1446.3 ± 1.4
m1 = 0.1792	1034.5 ± 0.96	1024.89 ± 0.96	1020.09 ± 0.96	1015.28 ± 0.95	1005.64 ± 0.95	995.97 ± 0.95	986.26 ± 0.95	1444.9 ± 1.4

O=S(=O)([O-])C(F)(F)F.O=S(=O)([O-])C(F)(F)F.O=S(=O)([O-])C(F)(F)F.[Lu+3] [lutetium(III) trifluoromethanesulfonate] + CN(C)C=O
Settings	mass density, 283.15 K [kg/m3]	mass density, 293.15 K [kg/m3]	mass density, 298.15 K [kg/m3]	mass density, 303.15 K [kg/m3]	mass density, 313.15 K [kg/m3]	mass density, 323.15 K [kg/m3]	mass density, 333.15 K [kg/m3]	speed of sound, 298.15 K [m/s]
m1 = 0.02151	967.66 ± 0.93	958.14 ± 0.93	953.37 ± 0.93	948.59 ± 0.93	939.01 ± 0.93	929.39 ± 0.93	919.7 ± 0.93	1455.4 ± 1.3
m1 = 0.02883	970.96 ± 0.94	961.44 ± 0.93	956.67 ± 0.93	951.89 ± 0.93	942.3 ± 0.93	932.66 ± 0.93	922.98 ± 0.93	1454.7 ± 1.3
m1 = 0.03776	975 ± 0.94	965.46 ± 0.94	960.69 ± 0.94	955.91 ± 0.94	946.32 ± 0.94	936.69 ± 0.94	927 ± 0.94	1454 ± 1.3
m1 = 0.04886	980.05 ± 0.95	970.51 ± 0.95	965.73 ± 0.95	960.95 ± 0.95	951.35 ± 0.94	941.71 ± 0.94	932.02 ± 0.94	1452.9 ± 1.3
m1 = 0.0599	985.11 ± 0.96	975.57 ± 0.96	970.79 ± 0.96	966.01 ± 0.96	956.39 ± 0.96	946.76 ± 0.95	937.05 ± 0.95	1451.8 ± 1.3
m1 = 0.07513	992.17 ± 0.97	982.63 ± 0.97	977.84 ± 0.97	973.05 ± 0.97	963.43 ± 0.97	953.77 ± 0.97	944.07 ± 0.96	1450.5 ± 1.3
m1 = 0.09644	1002.19 ± 0.99	992.62 ± 0.99	987.83 ± 0.98	983.03 ± 0.98	973.4 ± 0.98	963.72 ± 0.98	954 ± 0.98	1448 ± 1.3
m1 = 0.1156	1011.35 ± 1	1001.77 ± 1	996.97 ± 1	992.16 ± 1	982.52 ± 1	972.84 ± 1	963.09 ± 1	1445.9 ± 1.3
m1 = 0.1337	1020.13 ± 1	1010.53 ± 1	1005.72 ± 1	1000.91 ± 1	991.25 ± 1	981.57 ± 1	971.83 ± 1	1444.2 ± 1.4
m1 = 0.1557	1031 ± 1.1	1021.38 ± 1	1016.56 ± 1	1011.75 ± 1	1002.08 ± 1	992.37 ± 1	982.6 ± 1	1441.8 ± 1.4
m1 = 0.1744	1040.3 ± 1.1	1030.66 ± 1.1	1025.84 ± 1.1	1021.02 ± 1.1	1011.33 ± 1	1001.62 ± 1	991.84 ± 1	1439.7 ± 1.4
